Key:
[1] = system: CDX2+ hTSCs from CTBs from term placentas; assay: Derivation and support of CDX2+ hTSCs from term placental CTBs; type: cell-based, human; settings: component added to or exchanged in TSCM
Protocol: Differentiation of term CTBs to hTSCs. Term CTBs that were previously frozen were thawed directly into DTM7 medium, or TSCMUA medium (see, e.g., Table 1). To assess DTME medium, cells cultured in TSCMUA were passaged into DTME.
Culture of hTSCs. hTSCs were cultured in 2 ml of DTM7 at 37 C in 5% CO2. Culture medium was replaced every 2 days. When hTSCs reached 70-90% confluence, they were dissociated with TrypLE at 37° C. for 5-10 minutes and passaged to a new 6-well plate pre-coated with 3 μg/ml of vitronectin and 1 μg/ml of Laminin 521 at a 1:3-1:4 split ratio and were supplemented with Y-27632 upon passage to aid in single cell attachment. Cells were routinely passaged approximately every 4-6 days. hTSCs at passages 2+ (typically passage 5+) were used for analysis.
hTSC cell culture. hTSCs were cultured as previously described by Okae et al. with minor modifications. Additionally, similar protocols were used for the TSCMUA, DMT7, and DTME media described further herein. […]

CTB21126R+ term hTSCs = assay: Immunofluorescence marker expression in term CTB-derived hTSCs; type: cell-based, human; settings: term hTSCs switched from TSCM+UK5099+AlbuMAX to TSCM
Protocol: Immunofluorescence analysis. For immunofluorescence analysis, cells were grown on glass-bottom culture dishes coated with 3 μg/ml vitronectin and 1 μg/ml of Laminin 521. Cells were fixed either using 4% paraformaldehyde in PBS for 10 min, permeabilized with 0.5% Triton X-100 for 5 min and blocked in 3% BSA/PBS with 0.1% human IgG and 0.3% Triton X-100 for 1 hr. Cells were then incubated overnight with the primary antibody diluted in blocking buffer. The following primary antibodies were used: anti-KRT7 (SCB, 1:50), anti-KRT7 (CST, 1:500), rabbit anti-hCG (1:100), mouse anti-hCG (1:100), anti-YAP (1:200), anti-TFAP2C (1:400), anti-P63 (1:600), anti-GATA3 (1:500), anti-TEAD4 (1:250), anti-CDX2 (1:300), anti-VE-Cadherin (1:400), anti-HLA-G (1:300), anti-syncytin (1:50). Corresponding isotype controls (rabbit polyclonal IgG, rabbit XP IgG, mouse IgG1, and mouse IgG2a) were used at primary antibody concentrations. Alexa Fluor 488- or Alexa Fluor 647-conjugated secondary antibodies were used as secondary antibodies. Nuclei were stained with DAPI and all samples were imaged using a Zeiss LSM 710 or 880 laser scanning confocal microscope (Carl Zeiss, Germany).
Immunostaining. For immunofluorescence analysis, 3×10^4 cells were grown on 24-well glass bottom plates coated with 3 μg/ml of vitronectin and 1 μg/ml of Laminin 521. […]

Molecule | Role of component in hTSC derivation from term CTB [1] | Role of component in CDX2 expression (CTB21126R+ term hTSCs)
N#CC(=Cc1cn(-c2ccccc2)c2ccccc12)C(=O)O [UK5099, α-cyano-β-(1-phenylindol-3-yl)-acrylate] | necessary | important for CDX2 expression
lysophosphatidic acid [LPA] | cannot replace AlbuMAX | 

— US20250136932A1, “COMPOSITIONS AND METHODS FOR CULTURING AND MAINTAINING TROPHOBLAST STEM CELLS” (NORTH CAROLINA STATE UNIVERSITY, priority 2022, published 2025)
